{
  "source": "paper PMC6927504",
  "about": "“Screening of House Dust from Chinese Homes for Chemicals with Liver X Receptors Binding Activities and Characterization of Atherosclerotic Activity Using an in Vitro Macrophage Cell Line and ApoE^−/− Mice” (Environmental Health Perspectives, 2019)",
  "key": {"ApoE−/− mice": {"system": "ApoE−/− mice", "assay": "Immunofluorescence staining of aortic root sections (MOMA-2, SMCα-Actin) in ApoE−/− mice", "type": "in vivo, mouse", "conditions": "13 weeks", "excerpt": "All experiments related to animals were approved by the institutional animal care and use committee of Peking University and followed the guidelines for animal experiments of the university as well as for experimental animals in China. The biological effect size of the animal experiments was based on the previous paper ([Negro Silva et al. 2017]). C57BL/6 (12 weeks old) and ApoE^−/− mice (12 weeks old) were obtained from the Beijing Vital River Laboratory Animal Technology Company. Mice used in the experiments were acclimated to the housing unit 2 weeks before they were used for experiments, and they were randomly assigned to control or TPHP treatment groups. Five animals were housed to a cage, and mice were acclimatized to the controlled environment (temperature: 22±2°C; relative humidity: 40–60%; artificial lighting: 12 h:12 h light/dark). Mice received diet and drinking water ad libitum. Body weight (BW) was measured every week during the dosing period. Forty-five C57BL/6 mice and 27 ApoE^−/− mice were used in this study. Animal protocol 1: Male C57BL/6 mice (five mice per group) were fed a basic diet (Laboratory Animal Center of the Academy of Military Medical Sciences, China). On Day 0, mice were stimulated with paraffin oil by intraperitoneal injection. From Day 1 to Day 7, mice were exposed to corn oil (control) or TPHP (dissolved in corn oil) at 40 or 200mg/kg BW by daily oral gavage. The volume of the corn oil or TPHP in corn oil administered was 5mL/kg BW. On Day 8, after the mice were anesthetized by sodium pentobarbital via intramuscular injection, peritoneal macrophages were harvested from peritoneal lavage with 4mL pre-warmed DMEM-F12 (containing 10% FBS) using a 25-gauge needle; 5–10 min later, 3–3.5mL peritoneal fluid was collected, and the cells were isolated by centrifuge at 1,000 rpm for 5 min. […] Considering that this study assessed the effects of short-term exposure to TPHP, whereas humans are exposed to TPHP over a lifelong period, the present study used exposure doses that were higher than that of human exposure from house dust. […]"}, "RAW264.7 macrophages": {"system": "RAW264.7 macrophages", "assay": "Cellular NBD-cholesterol efflux assay in RAW264.7 macrophages", "type": "cell-based", "protocol": "RAW264.7 cells were obtained from the National Infrastructure of Cell Line Resource of Beijing, China, and the cells used for the experiment were cultured for at least three passages. Dulbecco’s Modified Eagle’s Medium (DMEM)-F12 medium containing 10% fetal bovine serum (FBS) was employed to culture the RAW264.7 cells. RAW264.7 cells were incubated at 37°C with 5% carbon dioxide. The RAW264.7 cells were plated at 2.5×10^5 cells/well (6-well plates), 6.0×10^4 cells/well (24-well plates), and 10^4 cells/well (96-well plates). […] Then the cells were used for the quantitative reverse transcription (qRT)-PCR, cellular cholesterol efflux assay, and foam cell formation experiment.\nRAW264.7 cells or mouse peritoneal macrophages were plated in 96-well plates at 10^4 cells/well and cultured with DMEM-F12 containing 10% FBS and 1μg/mL 22-[N-(7-nitrobenz-2-oxa-1,3-diazol-4-yl)amino]-23,24-bisnor-5-cholen-3β-Ol (NBD-cholesterol) for 24 h. […] NBD-cholesterol in the medium and cell lysis buffer were measured, respectively, using a Tecan Infinite® M1000Pro Microplate Reader (Tecan Group Ltd.) at 485-nm excitation wavelength and 535-nm emission wavelength. Cholesterol efflux was expressed as a percentage of fluorescence in the medium relative to the total amount of fluorescence."}, "[1]": {"assay": "Plasma lipids in ApoE−/− mice", "type": "in vivo, mouse", "conditions": "13 weeks, mean±SE", "excerpt": "All experiments related to animals were approved by the institutional animal care and use committee of Peking University and followed the guidelines for animal experiments of the university as well as for experimental animals in China. The biological effect size of the animal experiments was based on the previous paper ([Negro Silva et al. 2017]). C57BL/6 (12 weeks old) and ApoE^−/− mice (12 weeks old) were obtained from the Beijing Vital River Laboratory Animal Technology Company. Mice used in the experiments were acclimated to the housing unit 2 weeks before they were used for experiments, and they were randomly assigned to control or TPHP treatment groups. Five animals were housed to a cage, and mice were acclimatized to the controlled environment (temperature: 22±2°C; relative humidity: 40–60%; artificial lighting: 12 h:12 h light/dark). Mice received diet and drinking water ad libitum. Body weight (BW) was measured every week during the dosing period. Forty-five C57BL/6 mice and 27 ApoE^−/− mice were used in this study. Animal protocol 1: Male C57BL/6 mice (five mice per group) were fed a basic diet (Laboratory Animal Center of the Academy of Military Medical Sciences, China). On Day 0, mice were stimulated with paraffin oil by intraperitoneal injection. From Day 1 to Day 7, mice were exposed to corn oil (control) or TPHP (dissolved in corn oil) at 40 or 200mg/kg BW by daily oral gavage. The volume of the corn oil or TPHP in corn oil administered was 5mL/kg BW. On Day 8, after the mice were anesthetized by sodium pentobarbital via intramuscular injection, peritoneal macrophages were harvested from peritoneal lavage with 4mL pre-warmed DMEM-F12 (containing 10% FBS) using a 25-gauge needle; 5–10 min later, 3–3.5mL peritoneal fluid was collected, and the cells were isolated by centrifuge at 1,000 rpm for 5 min. The isolated cells were cultured in DMEM-F12 containing 10% FBS. After 4 h, the medium was changed, and the cells were cultured overnight. The cells were then used for the qRT-PCR, cellular cholesterol efflux assay, and foam cell formation experiment. The exposure period used in the present study was based on previous studies, in which peritoneal macrophages were harvested from mice treated with chemicals for 4–14 d ([Li et al. 2009]; [Saeed et al. 2012]). Considering that this study assessed the effects of short-term exposure to TPHP, whereas humans are exposed to TPHP over a lifelong period, the present study used exposure doses that were higher than that of human exposure from house dust. Animal protocol 2: Because wild-type mice are highly resistant to atherosclerosis, a well-established atherosclerosis model, the ApoE^−/− mouse, was used in the study. The male ApoE^−/− mice (nine mice per group) were fed a high-fat diet (D12108C; Research Diets Inc.) and exposed to corn oil (control) or TPHP (dissolved in corn oil) at 10 or 40mg/kg BW for 13 weeks by oral gavage. Mice were sacrificed 24 h after the last day of exposure with an overdose of sodium pentobarbital via intraperitoneal injection. Because the formation of atherosclerosis lesions required a long time, the exposure period used in the present study was based on previous studies in which the effects of chemicals on formation of atherosclerosis lesions were observed after an exposure period of 12–15 weeks ([Li et al. 2009]; [Negro Silva et al. 2017]; [Shi et al. 2016]). The doses of TPHP used in the ApoE^−/− model mouse referred to previous studies in which mice were treated with TPHP at 50–300mg/kg BW to observe significant adverse effects, including decreased testosterone levels and hypertriglyceridemia ([Chen et al. 2015]; [Morris et al. 2014]).\nTreated ApoE^−/− mice ( n=9 per group) were fasted overnight, and heart puncture was used to collect the blood soon after each animal was sacrificed. The blood samples were then centrifuged ( 1,000×g , 10 min, 4°C) to separate the plasma, and the plasma was stored at −80°C . […]"}, "[2]": {"conditions": "40mg/kg, n=9, p<0.05 vs control"}},
  "data": [
    {"smiles": "O=P(Oc1ccccc1)(Oc1ccccc1)Oc1ccccc1", "note": "[TPHP, triphenyl phosphate]", "values": [
      {"measurement": "Macrophage content (MOMA-2) in aortic root lesions, higher than control", "setting": "ApoE−/− mice; 10 mg/kg BW, p<0.05", "result": 1.9, "unit": "fold"},
      {"measurement": "Macrophage content (MOMA-2) in aortic root lesions, higher than control", "setting": "ApoE−/− mice; 40 mg/kg BW, p<0.01", "result": 3.1, "unit": "fold"},
      {"measurement": "Abundance of SMCs (SMCα-Actin) in the aortic roots versus control", "setting": "ApoE−/− mice; 10 and 40 mg/kg BW", "result": "a significant difference was not found"},
      {"measurement": "NBD-cholesterol efflux mediated by ApoA-I", "setting": "RAW264.7 macrophages; 100–20,000 nM", "result": "significantly inhibited"},
      {"measurement": "NBD-cholesterol efflux mediated by HDL", "setting": "RAW264.7 macrophages; 1,000–20,000 nM", "result": "significantly inhibited"},
      {"measurement": "Plasma HDL-C", "setting": "[1]; 10mg/kg, n=9", "result": "1.13 ± 0.05", "unit": "mmol/L"},
      {"measurement": "Plasma LDL-C", "setting": "[1]; 10mg/kg, n=9", "result": "10.53 ± 0.32", "unit": "mmol/L"},
      {"measurement": "Plasma cholesterol", "setting": "[1]; 10mg/kg, n=9", "result": "26.15 ± 1.34", "unit": "mmol/L"},
      {"measurement": "Plasma triglycerides", "setting": "[1]; 10mg/kg, n=9", "result": "0.92 ± 0.06", "unit": "mmol/L"},
      {"measurement": "Plasma HDL-C", "setting": "[1]; 40mg/kg, n=9", "result": "1.29 ± 0.05", "unit": "mmol/L"},
      {"measurement": "Plasma LDL-C", "setting": "[1]; 40mg/kg, n=9", "result": "10.27 ± 0.22", "unit": "mmol/L"},
      {"measurement": "Plasma cholesterol", "setting": "[1]; [2]", "result": "28.83 ± 1.90", "unit": "mmol/L"},
      {"measurement": "Plasma triglycerides", "setting": "[1]; [2]", "result": "1.06 ± 0.12", "unit": "mmol/L"}
    ]}
  ]
}
